Test results as given in patent publication US12331040B2 (Karyopharm Therapeutics Inc., priority 2013, dated 2025).
Where two headings read alike, the source gives them in different places.

Key:
Experiment in all cases: MTT cell proliferation assay
Assay type in all cases: cell-based
3T3 cells = settings: Mus musculus, NIH3T3, approximately 64-72 hours incubation
Summary of the method: (§1)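 Cytotoxicity was measured by MTT: OD490 of the solubilized formazan after roughly 4 h with MTT reagent, reported as mean percent inhibition relative to the negative control. Test compounds covered eight concentrations between 1 nM and 30 μM, added to 5,000–10,000 cells per well that had attached overnight.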

MS751 cells = settings: Homo sapiens, MS751, MS751 cells, approximately 64-72 hours incubation
Summary of the method: as §1

Z138 cells = settings: Homo sapiens, Z-138, Z138 cells, approximately 64-72 hours incubation
Summary of the method: as §1

[1] = read-out: MTT Assay IC50 MS-751
[2] = read-out: MTT Assay IC50, MS-751
[3] = read-out: MTT Assay IC50, Z-138

Row | Compound | IC50 (3T3 cells; read-out: MTT Assay IC50 3T3) | IC50 (MS751 cells; [1]) | IC50 (Z138 cells; read-out: MTT Assay IC50 Z-138) | IC50 (3T3 cells; read-out: MTT Assay IC50, 3T3) | IC50 (MS751 cells; [2]) | IC50 (Z138 cells; [3])
1 | Nc1ccc(/C=C/C(=O)NCc2cc3cc(-c4ccc(C(=O)N5CCC(F)CC5)cc4)cc(Cl)c3o2)cn1 [Compound 598, (E)-3-(6-aminopyridin-3-yl)-N-((7-chloro-5-(4-(4-fluoropiperidine-1-carbonyl)phenyl)benzofuran-2-yl)methyl)acrylamide] | > 10000 nM | 100 to 5000 nM | 100 to 5000 nM | – | – | –
2 | CC1(O)CCN(C(=O)c2ccc(-c3cc(C(F)(F)F)c4oc(CNC(=O)/C=C/c5ccc(N)nc5)cc4c3)nc2)C1 (stereo not drawn) [Compound 627, (E)-3-(6-aminopyridin-3-yl)-N-((5-(5-(3-hydroxy-3-methylpyrrolidine-1-carbonyl)pyridin-2-yl)-7-(trifluoromethyl)benzofuran-2-yl)methyl)acrylamide] | > 10000 nM | < 100 nM | < 100 nM | – | – | –
3 | Nc1ccc(/C=C/C(=O)NCc2cc3cc(-c4ccc(C(=O)N5CCC(O)(C(F)(F)F)CC5)cn4)cc(C(F)(F)F)c3o2)cn1 [Compound 616, (E)-3-(6-aminopyridin-3-yl)-N-((5-(5-(4-hydroxy-4-(trifluoromethyl)piperidine-1-carbonyl)pyridin-2-yl)-7-(trifluoromethyl)benzofuran-2-yl)methyl)acrylamide] | > 10000 nM | < 100 nM | < 100 nM | – | – | –
4 | Nc1ccc(/C=C/C(=O)NCc2cc3cc(-c4ccc(C(=O)N5CC(F)(F)C5)cc4)cc(C(F)(F)F)c3o2)cn1 [Compound 520, (E)-3-(6-aminopyridin-3-yl)-N-((5-(4-(3,3-difluoroazetidine-1-carbonyl)phenyl)-7-(trifluoromethyl)benzofuran-2-yl)methyl)acrylamide] | > 10000 nM | 100 to 5000 nM | 100 to 5000 nM | – | – | –
5 | Nc1ccc(/C=C/C(=O)NCc2cc3cc(-c4ccc(C(=O)c5ccc(F)cc5)cn4)cc(-c4ccc(F)cc4)c3o2)cn1 [Compound 703, (E)-3-(6-aminopyridin-3-yl)-N-((5-(5-(4-fluorobenzoyl)pyridin-2-yl)-7-(4-fluorophenyl)benzofuran-2-yl)methyl)acrylamide] | – | – | – | 5000 to 10000 nM | 100 to 5000 nM | < 100 nM
6 | Nc1ccc(/C=C/C(=O)NCc2cc3cc(-c4ccc(C(=O)N5CCC(C(F)(F)F)CC5)cn4)cc(C(F)(F)F)c3o2)cn1 [Compound 615, (E)-3-(6-aminopyridin-3-yl)-N-((7-(trifluoromethyl)-5-(5-(4-(trifluoromethyl)piperidine-1-carbonyl)pyridin-2-yl)benzofuran-2-yl)methyl)acrylamide] | > 10000 nM | 100 to 5000 nM | 100 to 5000 nM | – | – | –
7 | Nc1ccc(/C=C/C(=O)NCCc2cc3cc(-c4ccc(C(=O)N5CCC(F)(F)CC5)cc4)cc(C(F)(F)F)c3o2)cn1 [Compound 691, (E)-3-(6-aminopyridin-3-yl)-N-(2-(5-(4-(4,4-difluoropiperidine-1-carbonyl)phenyl)-7-(trifluoromethyl)benzofuran-2-yl)ethyl)acrylamide] | – | – | – | 100 to 5000 nM | 100 to 5000 nM | < 100 nM
8 | CC1(F)CCN(C(=O)c2ccc(-c3cc(C(F)(F)F)c4oc(CNC(=O)/C=C\c5ccc(N)nc5)cc4c3)nc2)C1 (single isomer, unassigned) [Compound 657, (Z)-3-(6-aminopyridin-3-yl)-N-((5-(5-(3-fluoro-3-methylpyrrolidine-1-carbonyl)pyridin-2-yl)-7-(trifluoromethyl)benzofuran-2-yl)methyl)acrylamide] | – | – | – | > 10000 nM | 100 to 5000 nM | 100 to 5000 nM
9 | Nc1ccc(/C=C/C(=O)NCc2cc3cc(-c4ncc(C(=O)N5CCC(F)(F)C5)cn4)cc(C(F)(F)F)c3o2)cn1 [Compound 653, (E)-3-(6-aminopyridin-3-yl)-N-((5-(5-(3,3-difluoropyrrolidine-1-carbonyl)pyrimidin-2-yl)-7-(trifluoromethyl)benzofuran-2-yl)methyl)acrylamide] | > 10000 nM | 100 to 5000 nM | 100 to 5000 nM | – | – | –
10 | Nc1ccc(/C=C/C(=O)NCc2cc3cc(-c4ccc(Oc5ccc(F)nc5)cc4)cc(-c4ccc(F)cc4)c3o2)cn1 [Compound 767, (E)-3-(6-aminopyridin-3-yl)-N-((7-(4-fluorophenyl)-5-(4-((6-fluoropyridin-3-yl)oxy)phenyl)benzofuran-2-yl)methyl)acrylamide] | – | – | – | > 10000 nM | 100 to 5000 nM | < 100 nM
11 | Nc1ccc(/C=C/C(=O)NCc2cc3cc(-c4ccc(C(=O)N5CCC(F)(F)CC5)cc4)cc(-c4ccc(F)nc4F)c3o2)cn1 [Compound 754, (E)-3-(6-aminopyridin-3-yl)-N-((5-(4-(4,4-difluoropiperidine-1-carbonyl)phenyl)-7-(2,6-difluoropyridin-3-yl)benzofuran-2-yl)methyl)acrylamide] | – | – | – | 100 to 5000 nM | < 100 nM | < 100 nM
12 | Nc1ccc(/C=C/C(=O)NCc2cc3cc(-c4ccc(OC5CCC(F)(F)CC5)cc4)cc(-c4ccc(F)cc4)c3o2)cn1 [Compound 763, (E)-3-(6-aminopyridin-3-yl)-N-((5-(4-((4,4-difluorocyclohexyl)oxy)phenyl)-7-(4-fluorophenyl)benzofuran-2-yl)methyl)acrylamide] | – | – | – | > 10000 nM | 100 to 5000 nM | 100 to 5000 nM
13 | CC1(C)CN(C(=O)c2ccc(-c3cc(C(F)(F)F)c4oc(CNC(=O)/C=C/c5ccc(N)nc5)cc4c3)cc2)CCO1 [Compound 530, (E)-3-(6-aminopyridin-3-yl)-N-((5-(4-(2,2-dimethylmorpholine-4-carbonyl)phenyl)-7-(trifluoromethyl)benzofuran-2-yl)methyl)acrylamide] | > 10000 nM | 100 to 5000 nM | 100 to 5000 nM | – | – | –
14 | Nc1ccc(/C=C/C(=O)NCc2cc3cc(-c4ccc(C(=S)N5CCC(F)(F)CC5)cn4)cc(-c4ccncc4)c3o2)cn1 [Compound 707, (E)-3-(6-aminopyridin-3-yl)-N-((5-(5-(4,4-difluoropiperidine-1-carbonothioyl)pyridin-2-yl)-7-(pyridin-4-yl)benzofuran-2-yl)methyl)acrylamide] | – | – | – | 100 to 5000 nM | < 100 nM | < 100 nM
15 | Nc1ccc(/C=C/C(=O)NCc2cc3cc(-c4ccc(C(=O)NCc5cccnc5)cn4)cc(C(F)(F)F)c3o2)cn1 [Compound 630, (E)-6-(2-((3-(6-aminopyridin-3-yl)acrylamido)methyl)-7-(trifluoromethyl)benzofuran-5-yl)-N-(pyridin-3-ylmethyl)nicotinamide] | 100 to 5000 nM | < 100 nM | < 100 nM | – | – | –
16 | Nc1ccc(/C=C/C(=O)NCc2cc3cc(-c4ncc(C(=O)N5CCC(F)(F)CC5)cn4)cc(C(F)(F)F)c3o2)cn1 [Compound 652, (E)-3-(6-aminopyridin-3-yl)-N-((5-(5-(4,4-difluoropiperidine-1-carbonyl)pyrimidin-2-yl)-7-(trifluoromethyl)benzofuran-2-yl)methyl)acrylamide] | > 10000 nM | 100 to 5000 nM | 100 to 5000 nM | – | – | –
17 | Nc1ccc(/C=C/C(=O)NCc2cc3cc(-c4ccc(C(=O)N5CCC(F)(F)CC5)cc4)cc(-c4ccc(F)c(F)c4)c3o2)cn1 [Compound 737, (E)-3-(6-aminopyridin-3-yl)-N-((7-(3,4-difluorophenyl)-5-(4-(4,4-difluoropiperidine-1-carbonyl)phenyl)benzofuran-2-yl)methyl)acrylamide] | – | – | – | 100 to 5000 nM | < 100 nM | < 100 nM
18 | CN1CCN(C(=O)c2cnc(-c3cc(Cl)c4oc(CNC(=O)/C=C/c5ccc(N)nc5)cc4c3)nc2)CC1 [Compound 586] | > 10000 nM | 100 to 5000 nM | 100 to 5000 nM | – | – | –
19 | COc1cc(-c2ncc(C(=O)N3CCOCC3)cn2)cc2cc(CNC(=O)/C=C/c3ccc(N)nc3)oc12 [Compound 638, (E)-3-(6-aminopyridin-3-yl)-N-((7-methoxy-5-(5-(morpholine-4-carbonyl)pyrimidin-2-yl)benzofuran-2-yl)methyl)acrylamide] | > 10000 nM | 100 to 5000 nM | < 100 nM | – | – | –
20 | Nc1ccc(/C=C/C(=O)NCc2cc3cc(-c4cnc(C(=O)N5CCOCC5)nc4)cc(Cl)c3o2)cn1 [Compound 546, (E)-3-(6-Aminopyridin-3-yl)-N-((7-chloro-5-(2-(morpholine-4-carbonyl)pyrimidin-5-yl)benzofuran-2-yl)methyl)acrylamide] | > 10000 nM | 100 to 5000 nM | 100 to 5000 nM | – | – | –
21 | O=C(/C=C/c1cccnc1)NCc1cc2cc(-c3ccc(C(=O)N4CCC(F)(F)CC4)cn3)cc(OC(F)(F)F)c2o1 [Compound 752, (E)-N-((5-(5-(4,4-difluoropiperidine-1-carbonyl)pyridin-2-yl)-7-(trifluoromethoxy)benzofuran-2-yl)methyl)-3-(pyridin-3-yl)acrylamide] | – | – | – | < 100 nM | < 100 nM | < 100 nM
